Source: patent publication US20010056085A1, “Methods of using vesicant drug formulations” (priority 1996, published 2001)
Read-outs that look alike come from different tables or passages of the source.

Assay: Half-life of ADR destruction by UVA light in the presence of test compounds (decrease in absorbance at 480 nm)
Assay type: physicochemical
Conditions: for Half-Life of ADR Destruction, 100 μM Test Compound: 100 μM test compound alone
[1] = UVA light, 100 μM test compound with 0.5 μM riboflavin

Row | Molecule | Half-Life of ADR Destruction, 100 μM Test Compound and 0.5 μM Riboflavin [1] [min] | Half-Life of ADR Destruction, 100 μM Test Compound (UVA light) [min] | Half-Life of ADR Destruction, 100 μM Test Compound and 0.5 μM Riboflavin [min]
1 | O=C1CC(c2ccccc2)Oc2ccccc21 (stereo not drawn) [2-Phenylchromanone (Flavanone), 2-Phenylchromanone] | 50.2 | – | –
2 | Nc1c(F)cccc1F [2,6-Difluoro Aniline] | 27.4 | – | –
3 | O=C(c1ccco1)c1cccs1 [2-Furyl-2-thienyl ketone] | – | 7.00 | –
4 | O=C(O)c1cccc2c1-c1ccccc1C2 [4-Fluorene Carboxylic acid] | 18.8 | 30.1 | –
5 | Cc1ccc(CO)cc1N [3-Amino-4-Methyl Benzyl Alcohol] | 23.2 | – | –
6 | O=c1ccoc2ccccc12 [Compound 4-Chromone, 4-Chromone] | – | 43.0 | –
7 | O=C(O)c1ccc[nH]1 [Pyrrole-2-carboxylic acid] | 23.2 | – | –
8 | Cc1c(N)cccc1CO [3-Amino-2-Methyl Benzyl Alcohol] | 33.5 | – | –
9 | Dimethyl-2,3-indolecarboxylic acid | 12.0 | – | –
10 | Nc1ccccc1C(=O)c1ccccc1 [2-Aminobenzophenone] | – | – | 16.7
11 | O=C1c2c(O)cccc2C([C@@H]2O[C@H](CO)[C@@H](O)[C@H](O)[C@H]2O)c2cc(CO)cc(O)c21 (stereo partly drawn) [Aloin] | 75.3 | 75.3 | –
12 | COc1ccccc1C(C)CO (stereo not drawn) [2-Methoxy-β-Methyl-Phenylethyl Alcohol] | 8.14 | 43.0 | –
13 | O=C(O)/C=C/c1ccccc1 [trans-Cinnamic Acid] | – | 43.0 | –
14 | N[C@@H](CSSC[C@H](N)C(=O)O)C(=O)O [Cystine] | 150.5 | – | –
15 | CC(=O)c1cccc(O)c1 [3′-Hydroxyacetophenone] | – | 75.3 | –
16 | Cc1cccc(CO)c1N [2-Amino-3-Methyl Benzyl Alcohol] | 18.8 | – | –
17 | COc1ccc(C=CCO)cc1 [4-Methoxy Cinnamyl Alcohol] | 9.12 | 50.2 | –
18 | O=C1c2ccccc2-c2ccccc21 [Compound 9-Fluorenone, 9-Fluorenone] | 43.0 | – | –
19 | Nc1ccc(C(=O)NCC(=O)O)cc1 [p-Amino hippuric acid] | 11.1 | 50.2 | –
20 | NCc1ccccc1N [2-Amino Benzylamine] | 14.3 | – | –
21 | Nc1ccc(C(=O)c2ccccc2)cc1 [4-Aminobenzophenone] | 21.5 | – | –
22 | O=C(O)Cc1ccc(O)cc1 [4-Hydroxy Phenylacetic Acid] | 75.3 | – | –
23 | O=C(O)CCC(=O)c1cccc2ccccc12 [γ-Oxo-1-napthalenebutyric acid] | 8.60 | 10.0 | –
24 | O=C(O)Cc1c[nH]c2ccc(O)cc12 [5-Hydroxyindole-3-acetic acid] | 150.5 | – | –
